Assay results: US10730863B2, “Bridged bicyclic compounds as farnesoid X receptor modulators” (BRISTOL-MYERS SQUIBB COMPANY, priority 2017, dated 2020)

Biological target: FXR (Homo sapiens (Human), UniProt Q96RI1)
Test: FXR EC50 (FXR agonist activity reported with each example)
Format: cell-based

FXR, sequence (Q96RI1 262-486): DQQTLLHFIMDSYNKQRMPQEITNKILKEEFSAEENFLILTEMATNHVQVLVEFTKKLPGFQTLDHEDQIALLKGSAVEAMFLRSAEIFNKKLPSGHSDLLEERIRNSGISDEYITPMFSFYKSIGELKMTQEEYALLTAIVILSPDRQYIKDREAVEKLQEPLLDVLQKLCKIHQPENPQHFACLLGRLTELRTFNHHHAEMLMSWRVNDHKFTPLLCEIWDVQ

Row | EC50 | SMILES
1 | 300 nM | O=C(O)c1cc(F)cc(-c2noc(C34CCC(OCc5c(-c6c(Cl)cccc6Cl)noc5C5CC5)(CC3)CO4)n2)c1 [Example 219, 3-(5-(4-((5-cyclopropyl-3-(2,6-dichlorophenyl)isoxazol-4-yl)methoxy)-2-oxabicyclo[2.2.2]octan-1-yl)-1,2,4-oxadiazol-3-yl)-5-fluorobenzoic acid]
2 | 870 nM | Clc1cccc(Cl)c1-c1noc(C2CC2)c1COCC12CCC(c3cccc(-c4nnn[nH]4)c3)(CC1)OC2 [Example 220, 4-(((1-(3-(1H-tetrazol-5-yl)phenyl)-2-oxabicyclo[2.2.2]octan-4-yl)methoxy)methyl)-5-cyclopropyl-3-(2,6-dichlorophenyl)isoxazole]
3 | 300 nM | O=C(O)c1cccc(-c2noc(C34CCC(OCc5c(-c6c(Cl)cccc6Cl)noc5C5CC5)(CC3)C4)n2)c1 [Example 221, 3-(5-((1r,4r)-4-((5-cyclopropyl-3-(2,6-dichlorophenyl)isoxazol-4-yl)methoxy)bicyclo[2.2.1]heptan-1-yl)-1,2,4-oxadiazol-3-yl)benzoic acid]
4 | 420 nM | O=C(O)c1ccc(-c2noc(C34CCC(C=Cc5c(-c6c(Cl)cccc6Cl)noc5C5CC5)(CC3)C4)n2)cc1 [Example 226, 4-(5-(4-(2-(5-cyclopropyl-3-(2,6-dichlorophenyl)isoxazol-4-yl)vinyl)bicyclo[2.2.1]heptan-1-yl)-1,2,4-oxadiazol-3-yl)benzoic acid]
5 | 190 nM | COc1ccc(-c2nc(C34CCC(OCc5c(-c6c(Cl)cncc6Cl)noc5C5CC5)(CC3)CC4)no2)cc1C(=O)O [Example 234, 5-(3-(4-((5-cyclopropyl-3-(3,5-dichloropyridin-4-yl)isoxazol-4-yl)methoxy)bicyclo[2.2.2]octan-1-yl)-1,2,4-oxadiazol-5-yl)-2-methoxybenzoic acid]
6 | 25 nM | O=C(O)c1cc(-c2noc(C34CCC(OCc5c(-c6c(Cl)cncc6Cl)noc5C5CC5)(CC3)CC4)n2)cc(C(F)(F)F)c1 [Example 235, 3-(5-(4-((5-cyclopropyl-3-(3,5-dichloropyridin-4-yl)isoxazol-4-yl)methoxy)bicyclo[2.2.2]octan-1-yl)-1,2,4-oxadiazol-3-yl)-5-(trifluoromethyl)benzoic acid]
7 | 21 nM | COc1c(F)cc(-c2noc(C34CCC(OCc5c(-c6c(Cl)cncc6Cl)noc5C5CC5)(CC3)CC4)n2)cc1C(=O)O [Example 238, 5-(5-(4-((5-cyclopropyl-3-(3,5-dichloropyridin-4-yl)isoxazol-4-yl)methoxy)bicyclo[2.2.2]octan-1-yl)-1,2,4-oxadiazol-3-yl)-3-fluoro-2-methoxybenzoic acid]
8 | 79 nM | COc1cc(C(=O)O)cc(-c2noc(C34CCC(OCc5c(-c6c(Cl)cncc6Cl)noc5C5CC5)(CC3)CC4)n2)c1 [Example 239, 3-(5-(4-((5-cyclopropyl-3-(3,5-dichloropyridin-4-yl)isoxazol-4-yl)methoxy)bicyclo[2.2.2]octan-1-yl)-1,2,4-oxadiazol-3-yl)-5-methoxybenzoic acid]
9 | 170 nM | COc1ccc(-c2noc(C34CCC(OCc5c(-c6c(Cl)cncc6Cl)noc5C5CC5)(CC3)CC4)n2)cc1C(N)=O [Example 240, 5-(5-(4-((5-cyclopropyl-3-(3,5-dichloropyridin-4-yl)isoxazol-4-yl)methoxy)bicyclo[2.2.2]octan-1-yl)-1,2,4-oxadiazol-3-yl)-2-methoxybenzamide]
10 | 130 nM | COc1cc(-c2noc(C34CCC(OCc5c(-c6c(Cl)cncc6Cl)noc5C5CC5)(CC3)CC4)n2)cc(C(=O)O)c1F [Example 241, 5-(5-(4-((5-cyclopropyl-3-(3,5-dichloropyridin-4-yl)isoxazol-4-yl)methoxy)bicyclo[2.2.2]octan-1-yl)-1,2,4-oxadiazol-3-yl)-2-fluoro-3-methoxybenzoic acid]
11 | 1400 nM | Oc1ccc(-c2noc(C34CCC(OCc5c(-c6c(Cl)cncc6Cl)noc5C5CC5)(CC3)CC4)n2)cc1-c1nnn[nH]1 [Example 242, 4-(5-(4-((5-cyclopropyl-3-(3,5-dichloropyridin-4-yl)isoxazol-4-yl)methoxy)bicyclo[2.2.2]octan-1-yl)-1,2,4-oxadiazol-3-yl)-2-(1H-tetrazol-5-yl)phenol]
12 | 120 nM | COc1cc(-c2noc(C34CCC(OCc5c(-c6c(Cl)cncc6Cl)noc5C5CC5)(CC3)CC4)n2)cc(C(=O)O)c1OC [Example 243, 5-(5-(4-((5-cyclopropyl-3-(3,5-dichloropyridin-4-yl)isoxazol-4-yl)methoxy)bicyclo[2.2.2]octan-1-yl)-1,2,4-oxadiazol-3-yl)-2,3-dimethoxybenzoic acid]
13 | 230 nM | COc1cc(C(=O)O)c(F)c(-c2noc(C34CCC(OCc5c(-c6c(Cl)cncc6Cl)noc5C5CC5)(CC3)CC4)n2)c1 [Example 244, 3-(5-(4-((5-cyclopropyl-3-(3,5-dichloropyridin-4-yl)isoxazol-4-yl)methoxy)bicyclo[2.2.2]octan-1-yl)-1,2,4-oxadiazol-3-yl)-2-fluoro-5-methoxybenzoic acid]
14 | 46 nM | COc1c(C(=O)O)cc(F)cc1-c1noc(C23CCC(OCc4c(-c5c(Cl)cncc5Cl)noc4C4CC4)(CC2)CC3)n1 [Example 245, 3-(5-(4-((5-cyclopropyl-3-(3,5-dichloropyridin-4-yl)isoxazol-4-yl)methoxy)bicyclo[2.2.2]octan-1-yl)-1,2,4-oxadiazol-3-yl)-5-fluoro-2-methoxybenzoic acid]
15 | 90 nM | COc1cc(C(=O)O)c(OC)c(-c2noc(C34CCC(OCc5c(-c6c(Cl)cncc6Cl)noc5C5CC5)(CC3)CC4)n2)c1 [Example 246, 3-(5-(4-((5-cyclopropyl-3-(3,5-dichloropyridin-4-yl)isoxazol-4-yl)methoxy)bicyclo[2.2.2]octan-1-yl)-1,2,4-oxadiazol-3-yl)-2,5-dimethoxybenzoic acid]
16 | 240 nM | O=C(O)c1cc(-c2noc(C34CCC(OCc5c(-c6c(Cl)cncc6Cl)noc5C5CC5)(CC3)CC4)n2)ccn1 [Example 249, 4-(5-(4-((5-cyclopropyl-3-(3,5-dichloropyridin-4-yl)isoxazol-4-yl)methoxy)bicyclo[2.2.2]octan-1-yl)-1,2,4-oxadiazol-3-yl)picolinic acid]
17 | 730 nM | COc1ccc(-c2noc(C34CCC(OCc5c(-c6c(Cl)cncc6Cl)noc5C5CC5)(CC3)CC4)n2)c(F)c1C(=O)O [Example 250, 3-(5-(4-((5-cyclopropyl-3-(3,5-dichloropyridin-4-yl)isoxazol-4-yl)methoxy)bicyclo[2.2.2]octan-1-yl)-1,2,4-oxadiazol-3-yl)-2-fluoro-6-methoxybenzoic acid]
18 | 16 nM | CC(C)Oc1cc(C(=O)O)cc(-c2noc(C34CCC(OCc5c(-c6c(Cl)cncc6Cl)noc5C5CC5)(CC3)CC4)n2)c1 [Example 251, 3-(5-(4-((5-cyclopropyl-3-(3,5-dichloropyridin-4-yl)isoxazol-4-yl)methoxy)bicyclo[2.2.2]octan-1-yl)-1,2,4-oxadiazol-3-yl)-5-isopropoxybenzoic acid]
19 | 86 nM | COc1ccc(-c2nc(C34CCC(OCc5c(-c6c(Cl)cncc6Cl)noc5C5CC5)(CC3)CC4)co2)cc1C(=O)O [Example 252, 5-(4-(4-((5-cyclopropyl-3-(3,5-dichloropyridin-4-yl)isoxazol-4-yl)methoxy)bicyclo[2.2.2]octan-1-yl)oxazol-2-yl)-2-methoxybenzoic acid]

Row | SMILES | EC50
20 | O=C(O)c1ccc(-c2noc(C34CCC(OCc5c(-c6c(Cl)cncc6Cl)noc5C5CC5)(CC3)CO4)n2)cc1 [Example 218] | 160 nM
21 | COC(=O)c1cccc(NC(=O)C23CCC(C=Cc4c(-c5c(Cl)cccc5Cl)noc4C4CC4)(CC2)C3)c1 [Example 229] | 3600 nM
22 | O=C(O)c1cccc(NC(=O)C23CCC(C=Cc4c(-c5c(Cl)cccc5Cl)noc4C4CC4)(CC2)C3)c1 [Example 230] | 890 nM
23 | O=C(O)c1cc(F)c2nc(C34CCC(OCc5c(-c6c(Cl)cncc6Cl)noc5C5CC5)(CC3)CC4)sc2c1 [Example 231, 2-(4-((5-cyclopropyl-3-(3,5-dichloropyridin-4-yl)isoxazol-4-yl)methoxy)bicyclo[2.2.2]octan-1-yl)-4-fluorobenzo[d]thiazole-6-carboxylic acid] | 53 nM
24 | O=C(O)c1cccc(-c2noc(C34CCC(OCc5c(-c6c(Cl)cncc6Cl)noc5C5CC5)(CC3)CC4)n2)c1 [Example 232, 3-(5-(4-((5-cyclopropyl-3-(3,5-dichloropyridin-4-yl)isoxazol-4-yl)methoxy)bicyclo[2.2.2]octan-1-yl)-1,2,4-oxadiazol-3-yl)benzoic acid] | 100 nM
25 | O=C(O)c1cc(-c2noc(C34CCC(OCc5c(-c6c(Cl)cncc6Cl)noc5C5CC5)(CC3)CC4)n2)ccc1F [Example 233, 5-(5-(4-((5-cyclopropyl-3-(3,5-dichloropyridin-4-yl)isoxazol-4-yl)methoxy)bicyclo[2.2.2]octan-1-yl)-1,2,4-oxadiazol-3-yl)-2-fluorobenzoic acid] | 92 nM
26 | COc1ccc(-c2noc(C34CCC(OCc5c(-c6c(Cl)cncc6Cl)noc5C5CC5)(CC3)CC4)n2)cc1C(=O)NS(C)(=O)=O [Example 236, 5-(5-(4-((5-cyclopropyl-3-(3,5-dichloropyridin-4-yl)isoxazol-4-yl)methoxy)bicyclo[2.2.2]octan-1-yl)-1,2,4-oxadiazol-3-yl)-2-methoxy-N-(methylsulfonyl)benzamide] | 26 nM
27 | COc1c(C(=O)O)cccc1-c1noc(C23CCC(OCc4c(-c5c(Cl)cncc5Cl)noc4C4CC4)(CC2)CC3)n1 [Example 237, 3-(5-(4-((5-cyclopropyl-3-(3,5-dichloropyridin-4-yl)isoxazol-4-yl)methoxy)bicyclo[2.2.2]octan-1-yl)-1,2,4-oxadiazol-3-yl)-2-methoxybenzoic acid] | 27 nM
28 | O=C(O)c1cccc(-c2noc(C34CCC(OCc5c(-c6c(Cl)cncc6Cl)noc5C5CC5)(CC3)CC4)n2)n1 [Example 247, 6-(5-(4-((5-cyclopropyl-3-(3,5-dichloropyridin-4-yl)isoxazol-4-yl)methoxy)bicyclo[2.2.2]octan-1-yl)-1,2,4-oxadiazol-3-yl)picolinic acid] | 580 nM
29 | O=C(O)c1c(F)ccc(-c2noc(C34CCC(OCc5c(-c6c(Cl)cncc6Cl)noc5C5CC5)(CC3)CC4)n2)c1F [Example 248, 3-(5-(4-((5-cyclopropyl-3-(3,5-dichloropyridin-4-yl)isoxazol-4-yl)methoxy)bicyclo[2.2.2]octan-1-yl)-1,2,4-oxadiazol-3-yl)-2,6-difluorobenzoic acid] | 1100 nM
